Assay results published in paper PMC9147171, “Pharmacokinetic/Pharmacodynamic Evaluation of a New Purine-2,6-Dione Derivative in Rodents with Experimental Autoimmune Diseases” (Pharmaceutics, 2022).

Legend:
PDE4B = conditions: read-out: IC50 (µM) Against PDE Isoform PDE4B; cited from earlier work
[1] = test system: MOG35–55-induced EAE in mice; experiment: MOG35-55-induced experimental autoimmune encephalomyelitis (EAE) in mice, PK/PD EAE progression model; type: in vivo, female C57BL/6 mice
Method: Female C57BL/6 mice were immunized by subcutaneous injection of MOG35–55 peptide emulsified in complete Freund’s adjuvant and IP administration of pertussis toxin solution in PBS (Hooke Laboratories, Inc., Lawrence, MA, USA). Mice developed EAE 8–14 days after immunization and on day 14 they were randomly divided into two groups. The study group (n = 6) was administered with compound 34 solution at an IP dose of 50 mg·kg^−1 once daily for 15 days, whereas the control group (n = 6) received vehicle alone. To follow the progress of the disease, clinical score (CS) (scale 0–5), including “in-between” scores (i.e., 0.5, 1.5, 2.5, 3.5, and 4.5), and body weight of mice were evaluated according to the protocol provided by Hooke Laboratories, Inc.. Using the Mann–Whitney U test, it was verified that there is no significant difference in CS between the groups on the day of randomization. […]
The model assumes that some time is required for the compound to distribute from the serum to the site of action before it interacts with a biological target and exerts the pharmacological effect. […] The progression of disease, which was measured by CS, is stimulated by the sum of the signals from 20th and 38th transit compartments that allows us to capture the onset of the disease, the temporary remission, and the relapse of the disease that is a characteristic feature of this animal model of MS [30]. […]

hrPDE1B = molecular target: T1, hrPDE1B (Homo sapiens, UniProt Q01064); experiment: PDE-Glo catalytic activity assay, PDE1B; type: biochemical
T1 construct: purchased SignalChem, Richmond, Canada
T1 sequence (Q01064 whole entry): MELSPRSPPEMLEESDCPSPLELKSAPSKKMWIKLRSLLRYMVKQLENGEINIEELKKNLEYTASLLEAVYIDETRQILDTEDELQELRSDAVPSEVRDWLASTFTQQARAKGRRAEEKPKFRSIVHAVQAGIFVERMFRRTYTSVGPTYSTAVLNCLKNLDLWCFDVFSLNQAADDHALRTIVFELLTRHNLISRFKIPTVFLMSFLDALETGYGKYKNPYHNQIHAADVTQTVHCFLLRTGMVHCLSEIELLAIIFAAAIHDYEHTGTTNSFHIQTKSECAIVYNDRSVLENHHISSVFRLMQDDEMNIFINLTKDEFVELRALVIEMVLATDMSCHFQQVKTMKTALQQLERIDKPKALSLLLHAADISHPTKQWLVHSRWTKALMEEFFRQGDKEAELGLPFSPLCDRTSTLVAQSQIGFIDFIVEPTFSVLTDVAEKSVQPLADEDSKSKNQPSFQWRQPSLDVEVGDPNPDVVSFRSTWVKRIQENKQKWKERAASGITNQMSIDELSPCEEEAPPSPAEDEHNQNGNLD
Method: The inhibitory activity of compound 34 against hrPDE1B and hrPDE3A (SignalChem, Richmond, Canada) was assessed using the PDE-Glo™ catalytic activity assay (Promega Corporation, Madison, WI, USA). It was performed on 384-well plates according to manufacturer’s instructions with slight modifications. Solutions of both PDEs were prepared by diluting their stock solutions in the PDE-Glo™ Reaction Buffer and aliquots of 6.5 μL were added to the wells. A stock solution of the tested compound was prepared in DMSO at a concentration of 10 mM and serially diluted with the same solvent. The obtained solutions were further diluted with PDE-Glo™ Reaction Buffer (1:5, v/v) and aliquots of 1 μL were transferred to the respective wells. Then, the mixture was incubated for 10 min at 30 °C on a heated plate shaker (Grant Instruments, Cambridge, United Kingdom). The reaction was started by the addition of 2.5 μL of a 0.2 μM cAMP solution to each well and the plate was incubated for 10 min at 30 °C on a heated plate shaker. Moreover, for each series, respective control reactions were performed: no-substrate, no-enzyme negative control reactions; no-enzyme positive control reactions containing substrate; and no-inhibitor positive control reactions containing both the substrate and PDE. After incubation, the reaction was stopped by adding 2.5 μL of the PDE-Glo™ Termination Buffer. A volume of 2.5 μL of the PDE-Glo™ Detection Buffer was transferred to each well and the plate was incubated for 20 min at room temperature. Finally, an aliquot of 10 μL of the PDE-Glo Kinase® Reagent was added to the wells. The plate was incubated for 10 min at room temperature and luminescence was measured with a luminometer (BMG Labtech, Ortenberg, Germany). For each inhibitor concentration, four independent measurements were performed. The resulting data were expressed as percent of an uninhibited control and plotted against the inhibitor concentration. The IC50 values were estimated by nonlinear regression using ADAPT5 software (BMSR, Los Angeles, CA, USA).

[2] = test system: LPS-induced endotoxemia in rats; set-up: method as in PMID 29407965; conditions: single IP dose of 50 mg·kg^−1, at 1.5 h post-LPS dosing; cited from earlier work

IC50 at 50 mg/kg ([1]; Mus musculus, ip, 50 mg·kg^−1 IP once daily for 15 days from day 14, clinical score, PK/PD model estimate, read-out: IC50_CS Compound 34 concentration resulting in 50% inhibition of disease progression, Estimate (CV%)): 7 ng/mL
IC50 (hrPDE1B; human recombinant PDE1B, CV% in brackets, read-out: IC50 (µM) Against PDE Isoform (CV%) PDE1B): 0.21 µM
times more potent than GRMS-55 in inhibiting PDE1B (hrPDE1B; ratio of IC50 values, vs GRMS-55): 12 times
inhibitory activity against PDE1B, times higher than that of vinpocetine (hrPDE1B; ratio of IC50 values, vs vinpocetine): around 36 times
Structure (SMILES): Cn1c(=O)c2c(nc(NCCc3ccccc3)n2CCCC(=O)NN=Cc2ccc(O)c(O)c2O)n(C)c1=O [Compound 34, 4-(1,3-dimethyl-2,6-dioxo-8-(phenethylamino)-2,3,6,7-tetrahydro-1H-purin-7-yl)-N′-(2,3,4-trihydroxybenzylidene)butanehydrazide]
IC50 (PDE4B): 1.4 µM
mean relative body weight, experimental vs control group ([1]; 50 mg·kg^−1 IP once daily for 15 days): not significantly different
reduction of maximum plasma TNFα concentrations [2]: 84%
